pIC50: −log10 of the molar value.
Experiments:
[1] = test system: LPS-induced TNF-α release in peripheral blood mononuclear cells (PBMCs); test: In vitro determination of PDE4 inhibitory activity in the peripheral blood mononuclear cells (PBMCs) assay; assay type: cell-based; settings: PBMC; human PBMCs, LPS (3 ng/ml), 18 hours, TNF-α by ELISA
Procedure: The assay, which is based on the known inhibitory activity exerted by PDE4 inhibitors on the lipopolysaccharides (LPS)-induced tumour necrosis factor-alpha (TNF-α release in peripheral blood mononuclear cells (PBMCs), was performed according to the method described by A. Hatzelmann, et al., J. Pharmacol. Exp. Ther., 2001; 297:267-279 and by R. Draheim, et al., J. Pharmacol. Exp. Ther., 2004; 308:555-563.
Cryopreserved human PBMCs, (100 μl/well) were incubated in 96-well plates (10^5 cells/well), for 30 minutes, in the presence or absence (50 microl) of the test compounds whose concentrations ranged from 10^−12 M to 10^−6 M. Subsequently, LPS (3 ng/ml) was added.
After 18 hours incubation at 37° C. in a humidified incubator under an atmosphere of 95% air and 5% CO2, culture medium was collected and TNF-α measured by ELISA. The results are expressed as mean±95% confidence limits of the molar concentration of the test compound producing 50% inhibition of LPS-induced TNF-α release (IC50).
The effects of the tested compounds were calculated as percent inhibition of TNF-α release, assuming LPS-induced TNF-α production in the absence of inhibitor compound as 100% and basal TNF-α production of PBMCs in the absence of LPS as 0%.

PDE4 enzyme = test: In vitro determination of PDE4 inhibitory activity in the cell free assay; assay type: biochemical, human; settings: U937 cell supernatant, 1.6 μM cAMP, 30° C. for 30 minutes, cAMP disappearance
Procedure: The U937 human monocytic cell line was used as source of PDE4 enzyme. Cells were cultured, harvested and supernatant fraction prepared essentially as described in T. J. Torphy, et al., J. Pharmacol. Exp. Ther., 1992; 263:1195-1205.
PDE4 activity was determined in cells supernatants by assaying cAMP disappearance from the incubation mixtures. 50 μl of cell supernatant were incubated at 30° C. for 30 minutes in a final volume of 200 μl in the presence of 1.6 μM cAMP with or without the test compound (50 μl).
The concentration of the test compounds ranged between 10^−12 M and 10^−6 M.
Reactions were stopped by heat inactivation (2.5 minutes at 100° C.), and residual cAMP was measured using an electrochemiluminescence (ECL)-based immunoassay.
The results are expressed as mean±95% confidence limits of the molar concentration of the test compound producing 50% inhibition of cAMP disappearance (IC50).
Percentage of inhibition of PDE4 activity was calculated, assuming cAMP disappearance in the absence of inhibitors as 100% and cAMP disappearance in heat inactivated samples as 0%.

Row | SMILES | pIC50 (PDE4 enzyme) | pIC50 [1]
1 | COc1cccc(CN(Cc2c(Cl)cncc2Cl)c2ccc(OC)c(OC)c2)c1 [Compound C3, (3,5-Dichloro-pyridin-4-ylmethyl)-(3,4-dimethoxy-phenyl)-(3-methoxy-benzyl)-amine] | 6.85 | 6.74
2 | COc1ccc(N(Cc2ccco2)Cc2c(Cl)cncc2Cl)cc1OC [Compound C9, (3,5-Dichloro-pyridin-4-ylmethyl)-(3,4-dimethoxy-phenyl)-furan-2-ylmethyl-amine] |  | 7.32
3 | COc1ccc(N(Cc2ccc(S(C)(=O)=O)cc2)Cc2c(Cl)cncc2Cl)cc1OC [Compound C4, (3,5-Dichloro-pyridin-4-ylmethyl)-(3,4-dimethoxy-phenyl)-(4-methanesulfonyl-benzyl)-amine] | 7.22 | 6.70
4 | COc1ccc(CN(Cc2c(Cl)cncc2Cl)c2ccc(OC)c(OC)c2)cc1 [Compound C13, (3,5-Dichloro-pyridin-4-ylmethyl)-(3,4-dimethoxy-phenyl)-(4-methoxy-benzyl)-amine] | 7.01 | 8.01
5 | COc1ccc(N(Cc2ccc(F)cc2)Cc2c(Cl)cncc2Cl)cc1OC [Compound C1, (3,5-Dichloro-pyridin-4-ylmethyl)-(3,4-dimethoxy-phenyl)-(4-fluoro-benzyl)-amine] | 7.09 | 6.18

The remaining compounds from weak to strong by pIC50 (PDE4 enzyme), led by results:

Row | pIC50 (PDE4 enzyme) | SMILES | pIC50 [1]
6 | 7.42 | COc1ccc(N(Cc2ccc(S(N)(=O)=O)cc2)Cc2c(Cl)cncc2Cl)cc1OC [Compound C10, 4-{[(3,5-Dichloro-pyridin-4-ylmethyl)-(3,4-dimethoxy-phenyl)-amino]-methyl}-benzenesulfonamide] | 7.42
7 | 7.57 | CCOc1cc(N(Cc2ccc(OC)cc2)Cc2c(Cl)cncc2Cl)ccc1OC [Compound C14, (3,5-Dichloro-pyridin-4-ylmethyl)-(3-ethoxy-4-methoxy-phenyl)-(4-methoxy-benzyl)-amine] | 6.93
